A word on the Emax: it is the maximal effect, on the per cent scale that the assay sets. As a reminder, the ED50 is the dose at which the effect has come halfway, by size or by number of responders. Usually melting point stands for the temperature, or range, at which the solid turns liquid.

Read-outs that look alike come from different tables or passages of the source. Where only a bound is given, the exact number is not on record here.

The target in series [1] is T1, Human recombinant PDE10A (hPDE10A) (Homo sapiens, UniProt Q9Y233).
T1 construct: His tag (inferred from metal chelate purification); made in house; host or cells: Sf9 insect cells (baculovirus)
T1 sequence (Q9Y233 267-1055): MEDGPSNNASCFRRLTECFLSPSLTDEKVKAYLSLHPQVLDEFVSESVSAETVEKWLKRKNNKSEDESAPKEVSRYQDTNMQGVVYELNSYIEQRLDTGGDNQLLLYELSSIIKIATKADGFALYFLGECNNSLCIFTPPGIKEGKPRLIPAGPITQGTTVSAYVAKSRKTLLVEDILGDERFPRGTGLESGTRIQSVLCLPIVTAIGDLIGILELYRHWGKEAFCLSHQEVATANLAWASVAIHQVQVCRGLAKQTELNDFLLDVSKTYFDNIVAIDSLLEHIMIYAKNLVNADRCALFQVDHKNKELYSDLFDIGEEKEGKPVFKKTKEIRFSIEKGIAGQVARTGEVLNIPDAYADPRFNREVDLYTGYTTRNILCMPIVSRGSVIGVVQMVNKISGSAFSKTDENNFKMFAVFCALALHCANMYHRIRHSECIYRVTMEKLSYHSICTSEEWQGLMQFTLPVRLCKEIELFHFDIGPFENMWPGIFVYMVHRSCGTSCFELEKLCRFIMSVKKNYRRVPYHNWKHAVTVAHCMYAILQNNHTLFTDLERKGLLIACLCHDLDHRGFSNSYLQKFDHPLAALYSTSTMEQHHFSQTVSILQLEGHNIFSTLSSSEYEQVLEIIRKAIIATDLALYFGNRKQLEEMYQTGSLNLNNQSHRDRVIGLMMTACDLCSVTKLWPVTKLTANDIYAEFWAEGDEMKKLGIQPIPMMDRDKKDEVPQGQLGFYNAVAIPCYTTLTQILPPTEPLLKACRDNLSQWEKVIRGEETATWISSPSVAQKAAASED
Description: In vitro assay PDE10A, human clone (SPA, 3H-cAMP hydrolysis). In kind it is biochemical. In a few lines:
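Hydrolysis of 3H-cAMP (60 nM cAMP, 0.008 μCi tracer) proceeded for 60 min at room temperature, with the product detected by SPA bead scintillation counting. The enzyme was hPDE10A from baculovirus-infected Sf9 cells in Tris pH 7.8 buffer with MgCl2 and EGTA, and compounds were at 1% DMSO final. Blanks lacked enzyme.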

Series [2] deals with T2, Human recombinant PDE2A (hPDE2A) (Homo sapiens, UniProt O00408).
T2 construct: His tag (inferred from metal chelate purification); made in house; host or cells: Sf9 insect cells (baculovirus)
T2 sequence (O00408 whole entry): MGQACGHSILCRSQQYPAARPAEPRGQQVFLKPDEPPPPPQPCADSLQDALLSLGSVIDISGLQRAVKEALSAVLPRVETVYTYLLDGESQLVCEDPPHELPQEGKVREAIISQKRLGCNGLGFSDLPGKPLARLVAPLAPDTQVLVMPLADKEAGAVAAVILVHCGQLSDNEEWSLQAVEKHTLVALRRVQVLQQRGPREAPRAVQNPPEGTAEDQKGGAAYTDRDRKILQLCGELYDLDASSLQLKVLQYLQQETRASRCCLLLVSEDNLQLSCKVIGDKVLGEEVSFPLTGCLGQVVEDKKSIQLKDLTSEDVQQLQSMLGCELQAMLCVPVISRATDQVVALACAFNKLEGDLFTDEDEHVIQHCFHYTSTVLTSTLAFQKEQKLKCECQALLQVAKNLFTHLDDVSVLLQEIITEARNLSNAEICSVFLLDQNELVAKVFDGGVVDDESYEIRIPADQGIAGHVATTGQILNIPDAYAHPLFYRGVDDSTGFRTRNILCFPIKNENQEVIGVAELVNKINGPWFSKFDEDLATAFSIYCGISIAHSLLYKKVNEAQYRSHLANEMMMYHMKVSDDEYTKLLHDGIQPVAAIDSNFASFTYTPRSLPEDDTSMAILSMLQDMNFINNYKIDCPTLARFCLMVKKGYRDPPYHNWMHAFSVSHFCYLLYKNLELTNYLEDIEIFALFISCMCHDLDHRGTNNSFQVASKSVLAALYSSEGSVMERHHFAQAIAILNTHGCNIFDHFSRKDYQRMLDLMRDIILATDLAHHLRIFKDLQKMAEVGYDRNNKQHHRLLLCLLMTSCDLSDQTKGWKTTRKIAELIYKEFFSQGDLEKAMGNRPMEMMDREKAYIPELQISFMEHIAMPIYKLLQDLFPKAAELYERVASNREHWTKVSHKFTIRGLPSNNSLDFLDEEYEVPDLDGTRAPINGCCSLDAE
Description: In vitro assay PDE2A (SPA, 3H-cGMP hydrolysis). In kind it is biochemical. The conditions noted are these: for Emax: read-out: hPDE2A Emax.

Series [3] deals with T3, PDE2A (Rattus norvegicus, UniProt Q01062).
T3 construct: Twenty μm-thick striatal sections were cut; from tissue; host or cells: rat brain, striatal sections
T3 sequence (Q01062 1-928): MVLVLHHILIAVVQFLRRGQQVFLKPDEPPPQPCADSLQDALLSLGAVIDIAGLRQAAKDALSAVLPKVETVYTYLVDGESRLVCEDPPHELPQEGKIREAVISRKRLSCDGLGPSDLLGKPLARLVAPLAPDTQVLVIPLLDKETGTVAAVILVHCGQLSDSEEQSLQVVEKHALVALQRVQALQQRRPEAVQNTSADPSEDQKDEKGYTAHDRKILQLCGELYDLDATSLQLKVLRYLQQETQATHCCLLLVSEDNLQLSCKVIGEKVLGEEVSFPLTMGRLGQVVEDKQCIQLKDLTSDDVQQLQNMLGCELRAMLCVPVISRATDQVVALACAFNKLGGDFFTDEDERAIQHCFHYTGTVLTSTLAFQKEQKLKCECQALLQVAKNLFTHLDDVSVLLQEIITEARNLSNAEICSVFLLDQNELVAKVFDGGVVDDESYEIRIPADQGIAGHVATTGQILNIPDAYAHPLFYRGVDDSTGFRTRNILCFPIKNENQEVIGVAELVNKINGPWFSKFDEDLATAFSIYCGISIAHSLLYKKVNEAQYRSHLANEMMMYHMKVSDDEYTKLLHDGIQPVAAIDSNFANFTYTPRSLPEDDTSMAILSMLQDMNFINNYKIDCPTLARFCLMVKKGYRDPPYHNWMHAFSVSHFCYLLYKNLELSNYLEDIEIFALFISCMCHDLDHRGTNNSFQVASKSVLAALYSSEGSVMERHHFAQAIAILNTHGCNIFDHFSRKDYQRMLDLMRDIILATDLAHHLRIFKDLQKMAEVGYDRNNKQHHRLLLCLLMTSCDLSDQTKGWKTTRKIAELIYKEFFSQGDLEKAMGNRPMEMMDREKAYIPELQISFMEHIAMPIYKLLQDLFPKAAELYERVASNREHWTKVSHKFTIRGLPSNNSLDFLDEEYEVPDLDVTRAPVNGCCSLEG
The series is described as follows: PDE2 occupancy by test compounds, ex-vivo autoradiography with [3H]B-17a. In kind it is in vivo, Male Wistar rats. The note with it: for receptor occupancy at 10 mg/kg: percentage receptor occupancy, ex-vivo autoradiography, striatum; for ED50: read-out: PDE Occupancy ED50.

For series [4], the target named is T4, Human recombinant PDE3A (hPDE3A) (Homo sapiens, UniProt Q14432).
T4 construct: purchased Scottish Biomedical; host or cells: Sf9 insect cells
T4 sequence (Q14432 whole entry): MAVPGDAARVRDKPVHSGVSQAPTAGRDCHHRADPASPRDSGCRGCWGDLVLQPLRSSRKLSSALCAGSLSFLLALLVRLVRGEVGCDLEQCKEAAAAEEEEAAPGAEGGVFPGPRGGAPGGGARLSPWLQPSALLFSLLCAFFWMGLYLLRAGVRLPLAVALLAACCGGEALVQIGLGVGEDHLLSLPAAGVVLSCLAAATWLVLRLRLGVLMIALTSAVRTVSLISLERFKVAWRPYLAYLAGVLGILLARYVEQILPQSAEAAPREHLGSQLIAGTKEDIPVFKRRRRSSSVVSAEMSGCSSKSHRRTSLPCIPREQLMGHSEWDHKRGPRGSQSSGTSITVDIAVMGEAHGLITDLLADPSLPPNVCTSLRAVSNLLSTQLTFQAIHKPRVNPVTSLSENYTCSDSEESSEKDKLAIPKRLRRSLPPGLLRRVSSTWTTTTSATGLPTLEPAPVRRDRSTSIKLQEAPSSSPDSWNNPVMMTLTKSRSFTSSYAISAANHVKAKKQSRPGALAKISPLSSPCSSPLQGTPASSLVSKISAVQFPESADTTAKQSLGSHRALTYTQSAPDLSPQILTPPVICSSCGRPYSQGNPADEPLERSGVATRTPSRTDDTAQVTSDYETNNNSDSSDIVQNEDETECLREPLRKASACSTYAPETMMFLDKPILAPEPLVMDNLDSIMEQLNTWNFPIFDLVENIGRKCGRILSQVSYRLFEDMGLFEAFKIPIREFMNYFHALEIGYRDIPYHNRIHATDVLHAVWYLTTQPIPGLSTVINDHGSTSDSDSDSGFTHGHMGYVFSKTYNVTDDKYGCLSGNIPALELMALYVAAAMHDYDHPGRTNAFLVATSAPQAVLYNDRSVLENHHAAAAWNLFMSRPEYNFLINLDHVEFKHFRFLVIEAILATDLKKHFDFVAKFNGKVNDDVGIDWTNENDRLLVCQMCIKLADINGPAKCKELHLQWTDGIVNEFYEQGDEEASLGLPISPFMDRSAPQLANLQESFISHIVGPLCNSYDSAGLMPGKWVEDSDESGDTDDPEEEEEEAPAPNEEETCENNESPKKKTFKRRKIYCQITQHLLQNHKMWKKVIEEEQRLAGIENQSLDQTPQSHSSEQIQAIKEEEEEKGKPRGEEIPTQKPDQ
Description: In vitro assay PDE3A (SPA, 3H-cAMP hydrolysis).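 As to all read-outs here: the method names PDE3A and the table heading PDE3B.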 In kind it is biochemical. The conditions noted are these: for IC50: hPDE3B pIC50, read-out: pIC50 (converted); for Emax: read-out: hPDE3B Emax, read-out: Emax. The essentials:
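Radiometric SPA measuring [3H]-cAMP hydrolysis (0.4 μM cAMP, 2.4 μCi/ml) over 60 min at room temperature, in Tris pH 7.8 buffer with MgCl2 and EGTA, 1% DMSO. Enzyme: recombinant human brain PDE3A expressed in Sf9 cells, used as partially purified lysate. Counts compared with enzyme-free blanks and vehicle controls.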

Setting [5] is: human clone (h), default, read-out: hPDE10A2 Emax.
The mark [6] stands for this setting: human clone (h), default, read-out: hPDE10A2 pIC50 (converted).
Where [7] appears, read: human recombinant PDE2A, 10 μM cGMP substrate, read-out: hPDE2A pIC50 (converted).
[8] abbreviates: read-out: hPDE2A pIC50 (converted).
Setting [9] is: route PO (oral), drug dose producing 50% receptor occupancy.
[10] abbreviates: human clone by default (no (r) mark), read-out: hPDE10A2 or rPDE10A2 Emax.
Setting [11] is: human clone by default (no (r) mark), read-out: hPDE10A2 or rPDE10A2 pIC50 (converted).

As for `COc1cc(C(=O)N2CC[C@@H](C)[C@H](c3cc(C(F)F)nc4ncnn34)C2)cc(Cl)n1` [Compound 108], the melting point worked out at 151.39 °C. Moreover, the Emax in series [1] (setting [5]) was 99%. Further, the IC50 in series [1] (setting [6]) is 52.5 nM. In addition, the IC50 in series [2] (setting [7]) is 0.912 nM. Also, the Emax in series [2] (human recombinant PDE2A) turned out to be 100%. Besides, in series [2], the maximal effect (Emax) is 100%. Moreover, the IC50 in series [2] (setting [8]) was 0.912 nM. Also, the receptor occupancy at 10 mg/kg in series [3] (po, route PO (oral)) amounted to 65%. Also, the 50% effective dose (ED50) in series [3] (setting [9]) was determined as 4.8 mg/kg. Further, in series [4], the IC50 is 2690 nM and the Emax was found to be 80%.
Compound `Cn1ccc2cc(C(=O)N3[C@H]4CC[C@H](c5cc(C(F)F)nc6ncnn56)[C@@H]3CC4)ccc21` [Compound 295] came in with a melting point of 178.8 °C. For the same compound, in series [1] (setting [10]), the Emax amounted to 98%. Besides, the IC50 in series [1] (setting [11]) is 245 nM. Besides, the Emax in series [2] was 101%. In addition, in series [2] (setting [8]), the IC50 was 0.49 nM. For the same compound, in series [3] (route PO (oral)), the receptor occupancy at 10 mg/kg was 71%. Moreover, the ED50 in series [3] (po) stood at 5.63 mg/kg. Moreover, in series [4], the IC50 was 977 nM and the Emax turned out to be 94%.
`CCn1ccc2cc(C(=O)N3[C@H]4CC[C@H](c5cc(C(F)F)nc6ncnn56)[C@@H]3CC4)ccc21` [Compound 363] came in with a melting point of 221.75 °C. The Emax in series [1] (setting [10]) came out at 98%. The IC50 in series [1] (setting [11]) is 178 nM. The Emax in series [2] was 99%. Besides, the IC50 in series [2] (setting [8]) is 0.275 nM. In addition, the receptor occupancy at 10 mg/kg in series [3] (route PO (oral)) is -11%. Further, in series [4], the IC50 was 617 nM and the Emax is 97%.
As to `C[C@@H]1CCN(C(=O)c2cc(Cl)cc(Cl)c2)C[C@H]1c1cc(C(F)F)nc2ncnn12` [Compound 334], the melting point was determined as 239.87 °C. For the same compound, the Emax in series [1] (setting [10]) was determined as 98%. Moreover, the IC50 in series [1] (setting [11]) is 100 nM. Moreover, the IC50 in series [2] (hPDE2A pIC50) was 2.45 nM. Besides, the Emax in series [2] is 100%. In series [3] (po, route PO (oral)), the receptor occupancy at 10 mg/kg was determined as 17%. In series [4], the IC50 was 2340 nM and the Emax was found to be 84%.
Take `Cc1cc(C(=O)N2CC[C@@H](C)[C@H](c3cc(C(F)F)nc4ncnn34)C2)cc(C(F)(F)F)n1` [Compound 132]: the melting point was determined as 116.57 °C. The maximal response (Emax) in series [1] (setting [5]) is 98%. Further, the IC50 in series [1] (setting [6]) is 200 nM. Further, the IC50 in series [2] (setting [7]) was 2.51 nM. Further, the Emax in series [2] (human recombinant PDE2A) amounted to 101%. Moreover, the Emax in series [2] is 101%. The IC50 in series [2] (setting [8]) is 2.51 nM. In series [3] (setting [9]), the ED50 amounted to 5 mg/kg. Also, the receptor occupancy at 10 mg/kg in series [3] (sc, route SC (subcutaneous)) worked out at 76%. Moreover, in series [4], the IC50 was > 10000 nM and the Emax is 46%.
In the case of `Cc1cc(C(=O)N2CC[C@@H](C)[C@H](c3cc(C(F)F)nc4ncnn34)C2)cc(C(F)F)n1` [Compound 321], the melting point came to 137.5 °C. In series [1] (setting [10]), the Emax was found to be 97%. The IC50 in series [1] (setting [11]) is 309 nM. In series [2] (hPDE2A pIC50), the IC50 was 2.19 nM. In addition, the Emax in series [2] stood at 101%. For the same compound, the receptor occupancy at 10 mg/kg in series [3] (po, route PO (oral)) amounted to 73%. Also, the ED50 in series [3] (po) was 3.37 mg/kg. In series [4], the IC50 is 8130 nM and the Emax was 45%.
Regarding `O=C(c1cnc2c(Cl)cccc2c1)N1[C@H]2CC[C@H](c3cc(C(F)F)nc4ncnn34)[C@@H]1CC2` [Compound 310], the melting point was 240.9 °C. For the same compound, in series [1] (setting [10]), the maximum response (Emax) is 95%. In series [1] (setting [11]), the IC50 is 398 nM. In series [2], the maximum response (Emax) amounted to 100%. Further, the IC50 in series [2] (setting [8]) was 1.41 nM. In addition, in series [3] (route PO (oral)), the receptor occupancy at 10 mg/kg was 52%. Besides, the 50% effective dose (ED50) in series [3] (po) turned out to be 9.6 mg/kg. In series [4], the IC50 was 3890 nM and the Emax was found to be 78%.
`Cc1cc([C@@H]2CN(C(=O)c3cc(Cl)ncc3C(F)(F)F)CC[C@H]2C)n2ncnc2n1` [Compound 270] had a melting point of 213.25 °C. Also, the Emax in series [1] (setting [5]) was 96%. The IC50 in series [1] (setting [6]) was 269 nM. Moreover, the Emax in series [1] (setting [10]) is 96%. Also, in series [1] (setting [11]), the IC50 was 269 nM. Besides, in series [2], the Emax came to 100%. For the same compound, in series [2] (setting [8]), the IC50 is 2.34 nM. For the same compound, the receptor occupancy at 10 mg/kg in series [3] (po, route PO (oral)) is 6%. In series [4], the IC50 is > 10000 nM and the Emax was 29%.

The values are drawn from patent US10947242B2, “[1,2,4]triazolo[1,5and#8208;A]pyrimidine compounds as PDE2 inhibitors” (Janssen Pharmaceutica NV, priority 2016, dated 2021).
